From ChEMBL document CHEMBL3526096, “Species differences in biliary clearance and possible relevance of hepatic uptake and efflux transporters involvement” (Drug Metab Dispos, 2013)
Values belong to the compound of their own block, whether it stands above or below them.

Legend:
[1] = Drug excretion in iv dosed rat assessed as compound excreted into bile; type: ADME, organism-based; settings: read-out: Drug excretion
[2] = Drug excretion in iv dosed human assessed as compound excreted into bile by T-tube method; type: ADME, organism-based; settings: read-out: Drug excretion
[3] = Drug excretion in iv dosed dog assessed as compound excreted into bile; type: ADME, organism-based, Canis lupus familiaris; settings: read-out: Drug excretion
Rattus norvegicus [4] = test: Total biliary clearance in Sprague-Dawley rat at 20 mg/kg, iv; type: ADME, organism-based, Bile; design: dose 20 mg/kg, route intravenous; settings: in vivo
Rattus norvegicus [5] = test: Unbound biliary clearance in Sprague-Dawley rat at 20 mg/kg, iv; type: ADME, organism-based, Bile; design: dose 20 mg/kg, route intravenous; settings: in vivo
[6] = Drug excretion in Sprague-Dawley rat assessed as compound excreted into bile at 20 mg/kg, iv; type: ADME, organism-based; design: dose 20 mg/kg, route intravenous; settings: read-out: Drug excretion
[7] = Drug excretion in beagle dog assessed as compound excreted into bile at 20 mg/kg, iv; type: ADME, organism-based, Canis lupus familiaris; design: dose 20 mg/kg, route intravenous; settings: read-out: Drug excretion
Homo sapiens [8] = test: Unbound biliary clearance in human at 1 gm, iv after 24 hrs by T-tube method; type: ADME, organism-based, Bile; settings: in vivo
Canis familiaris [9] = test: Total biliary clearance in beagle dog at 20 mg/kg, iv; type: ADME, organism-based, Canis lupus familiaris, Bile; design: dose 20 mg/kg, route intravenous; settings: in vivo
Homo sapiens [10] = test: Total biliary clearance in human at 1 gm, iv after 24 hrs by T-tube method; type: ADME, organism-based, Bile; settings: in vivo
[11] = Drug excretion in human assessed as compound excreted into bile at 1 gm, iv after 24 hrs by T-tube method; type: ADME, organism-based; settings: read-out: Drug excretion
Canis familiaris [12] = test: Unbound biliary clearance in beagle dog at 20 mg/kg, iv; type: ADME, organism-based, Canis lupus familiaris, Bile; design: dose 20 mg/kg, route intravenous; settings: in vivo
Rattus norvegicus [13] = test: Total biliary clearance in Sprague-Dawley rat at 300 mg/kg, iv; type: ADME, organism-based, Bile; design: dose 300 mg/kg, route intravenous; settings: in vivo
[14] = Drug excretion in human assessed as compound excreted into bile at 1 gm, iv after 8 hrs by T-tube method; type: ADME, organism-based; settings: read-out: Drug excretion
Homo sapiens [15] = test: Total biliary clearance in human at 1 gm, iv after 8 hrs by T-tube method; type: ADME, organism-based, Bile; settings: in vivo
Rattus norvegicus [16] = test: Unbound biliary clearance in Sprague-Dawley rat at 300 mg/kg, iv; type: ADME, organism-based, Bile; design: dose 300 mg/kg, route intravenous; settings: in vivo
Homo sapiens [17] = test: Unbound biliary clearance in human at 1 gm, iv after 8 hrs by T-tube method; type: ADME, organism-based, Bile; settings: in vivo
[18] = Drug excretion in Sprague-Dawley rat assessed as compound excreted into bile at 300 mg/kg, iv; type: ADME, organism-based; design: dose 300 mg/kg, route intravenous; settings: read-out: Drug excretion
Homo sapiens [19] = test: Total biliary clearance in iv dosed human after 8 hrs by T-tube method; type: ADME, organism-based, Bile; settings: in vivo
Rattus norvegicus [20] = test: Total biliary clearance in iv dosed Wistar rat; type: ADME, organism-based, Bile; settings: in vivo
[21] = Drug excretion in iv dosed Wistar rat assessed as compound excreted into bile; type: ADME, organism-based; settings: read-out: Drug excretion
Homo sapiens [22] = test: Unbound biliary clearance in iv dosed human after 8 hrs by T-tube method; type: ADME, organism-based, Bile; settings: in vivo
Rattus norvegicus [23] = test: Unbound biliary clearance in iv dosed Wistar rat; type: ADME, organism-based, Bile; settings: in vivo
[24] = Drug excretion in iv dosed human assessed as compound excreted into bile after 8 hrs by T-tube method; type: ADME, organism-based; settings: read-out: Drug excretion
Homo sapiens [25] = test: Total biliary clearance in iv dosed human after 6 hrs by T-tube method; type: ADME, organism-based, Bile; settings: in vivo
Homo sapiens [26] = test: Unbound biliary clearance in iv dosed human after 6 hrs; type: ADME, organism-based, Bile; settings: in vivo
[27] = Drug excretion in iv dosed human assessed as compound excreted into bile after 6 hrs; type: ADME, organism-based; settings: read-out: Drug excretion
Rattus norvegicus [28] = test: Total biliary clearance in iv dosed rat; type: ADME, organism-based, Bile; settings: in vivo
Rattus norvegicus [29] = test: Unbound biliary clearance in iv dosed rat; type: ADME, organism-based, Bile; settings: in vivo
Homo sapiens [30] = test: Unbound biliary clearance in human at 200 mg, po after 24 hrs by T-tube method; type: ADME, organism-based, Bile; settings: in vivo
Homo sapiens [31] = test: Total biliary clearance in human at 200 mg, po after 24 hrs by T-tube method; type: ADME, organism-based, Bile; settings: in vivo
[32] = Drug excretion in human assessed as compound excreted into bile at 200 mg, po after 24 hrs by T-tube method; type: ADME, organism-based; settings: read-out: Drug excretion
Canis familiaris [33] = test: Unbound biliary clearance in iv dosed dog; type: ADME, organism-based, Canis lupus familiaris, Bile; settings: in vivo
Homo sapiens [34] = test: Total biliary clearance in iv dosed human after 7 hrs by duodenal perfusion method; type: ADME, organism-based, Bile; settings: in vivo
Homo sapiens [35] = test: Unbound biliary clearance in iv dosed human after 7 hrs by duodenal perfusion method; type: ADME, organism-based, Bile; settings: in vivo
Canis familiaris [36] = test: Total biliary clearance in iv dosed dog; type: ADME, organism-based, Canis lupus familiaris, Bile; settings: in vivo
[37] = Drug excretion in iv dosed human assessed as compound excreted into bile after 7 hrs by duodenal perfusion method; type: ADME, organism-based; settings: read-out: Drug excretion
Homo sapiens [38] = test: Total biliary clearance in human at 20 mg, iv after 24 hrs by T-tube method; type: ADME, organism-based, Bile; settings: in vivo
Homo sapiens [39] = test: Unbound biliary clearance in human at 20 mg, iv after 24 hrs by T-tube method; type: ADME, organism-based, Bile; settings: in vivo
Rattus norvegicus [40] = test: Total biliary clearance in Sprague-Dawley rat at 8 uCi, iv; type: ADME, organism-based, Bile; settings: in vivo
[41] = Drug excretion in human assessed as compound excreted into bile at 20 mg, iv after 24 hrs by T-tube method; type: ADME, organism-based; settings: read-out: Drug excretion
Rattus norvegicus [42] = test: Unbound biliary clearance in Sprague-Dawley rat at 8 uCi, iv; type: ADME, organism-based, Bile; settings: in vivo
Homo sapiens [43] = test: Unbound biliary clearance in iv dosed human after 6 to 8 hrs by duodenal perfusion method; type: ADME, organism-based, Bile; settings: in vivo
Homo sapiens [44] = test: Total biliary clearance in iv dosed human after 6 to 8 hrs by duodenal perfusion method; type: ADME, organism-based, Bile; settings: in vivo
[45] = Drug excretion in iv dosed human assessed as compound excreted into bile after 6 to 8 hrs by duodenal perfusion method; type: ADME, organism-based; settings: read-out: Drug excretion
[46] = Drug excretion in human assessed as compound excreted into bile at 2 gm, iv after 24 hrs by T-tube method; type: ADME, organism-based; settings: read-out: Drug excretion

CL (Rattus norvegicus [13]): 2.19 mL/min/kg | dose excreted at 8 h [14]: 0.5% | CL (Homo sapiens [15]): 0.003 mL/min/kg | CL free (Rattus norvegicus [16]): 4.294 mL/min/kg | CL free (Homo sapiens [17]): 0.008 mL/min/kg | dose excreted [18]: 25%
SMILES: CO[C@@]1(NC(=O)C(C(=O)O)c2ccc(O)cc2)C(=O)N2C(C(=O)O)=C(CSc3nnnn3C)CO[C@@H]21 (stereo partly specified) [MOXALACTAM]

CL (Homo sapiens [19]): 0.042 mL/min/kg | CL (Rattus norvegicus [20]): 0.85 mL/min/kg | dose excreted [21]: 5% | CL free (Homo sapiens [22]): 8.4 mL/min/kg | CL free (Rattus norvegicus [23]): 94.44 mL/min/kg | dose excreted at 8 h [24]: 1%
SMILES: O=C([O-])Cc1ccccc1Nc1c(Cl)cccc1Cl.[Na+] [DICLOFENAC SODIUM]

CL (Homo sapiens [25]): 0.012 mL/min/kg | CL (Rattus norvegicus [20]): 5 mL/min/kg | dose excreted [21]: 33% | CL free (Homo sapiens [26]): 0.048 mL/min/kg | CL free (Rattus norvegicus [23]): 29.41 mL/min/kg | dose excreted at 6 h [27]: 0.4%
SMILES: Cn1nnnc1SCC1=C(C(=O)O)N2C(=O)[C@@H](NC(=O)[C@H](O)c3ccccc3)[C@H]2SC1 [CEFAMANDOLE]

CL (Homo sapiens [38]): 0.431 mL/min/kg | CL free (Homo sapiens [39]): 10.775 mL/min/kg | CL (Rattus norvegicus [40]): 12.5 mL/min/kg | dose excreted at 24 h [41]: 88% | CL free (Rattus norvegicus [42]): 378.8 mL/min/kg
SMILES: CCCCC(=O)N(Cc1ccc(-c2ccccc2-c2nnn[nH]2)cc1)[C@H](C(=O)O)C(C)C

dose excreted [1]: 86% | dose excreted at 24 h [46]: 12%
SMILES: CCN1CCN(C(=O)N[C@@H](C(=O)N[C@@H]2C(=O)N3C(C(=O)O)=C(CSc4nnnn4C)CS[C@H]23)c2ccc(O)cc2)C(=O)C1=O [CEFOPERAZONE]

More lines, now with the values behind:

SMILES: Cc1nnc(SCC2=C(C(=O)O)N3C(=O)[C@@H](NC(=O)Cn4cnnn4)[C@H]3SC2)s1 [CEFAZOLIN]
dose excreted [1]: 30% | dose excreted [2]: 0.1% | dose excreted [3]: 2%

SMILES: Cc1cc(O)c(C(=O)N[C@@H](C(=O)N[C@@H]2C(=O)N3C(C(=O)O)=C(CSc4nnnn4C)CS[C@H]23)c2ccc(O)cc2)cn1 [CEFPIRAMIDE]
CL (Rattus norvegicus [4]): 5.22 mL/min/kg | CL free (Rattus norvegicus [5]): 9.667 mL/min/kg | dose excreted [6]: 58% | dose excreted [7]: 19% | CL free (Homo sapiens [8]): 1 mL/min/kg | CL (Canis familiaris [9]): 0.979 mL/min/kg | CL (Homo sapiens [10]): 0.04 mL/min/kg | dose excreted at 24 h [11]: 28% | CL free (Canis familiaris [12]): 1.399 mL/min/kg

SMILES: C=CC1=C(C(=O)O)N2C(=O)[C@@H](NC(=O)/C(=N\OCC(=O)O)c3csc(N)n3)[C@H]2SC1 [CEFIXIME]
CL (Rattus norvegicus [28]): 1 mL/min/kg | dose excreted [1]: 41% | CL free (Rattus norvegicus [29]): 7.143 mL/min/kg | CL free (Homo sapiens [30]): 0.452 mL/min/kg | CL (Homo sapiens [31]): 0.14 mL/min/kg | dose excreted at 24 h [32]: 11%

SMILES: CO[C@@]1(NC(=O)C2SC(=C(C(N)=O)C(=O)O)S2)C(=O)N2C(C(=O)O)=C(CSc3nnnn3C)CS[C@@H]21 (stereo partly specified) [CEFOTETAN]
CL free (Canis familiaris [33]): 1.141 mL/min/kg | CL (Homo sapiens [34]): 0.048 mL/min/kg | CL free (Homo sapiens [35]): 0.32 mL/min/kg | CL (Rattus norvegicus [28]): 6.14 mL/min/kg | CL (Canis familiaris [36]): 0.696 mL/min/kg | dose excreted [1]: 48% | CL free (Rattus norvegicus [29]): 8.771 mL/min/kg | dose excreted at 7 h [37]: 11% | dose excreted [3]: 17%

SMILES: CO/N=C(\C(=O)N[C@@H]1C(=O)N2C(C(=O)O)=C(CSc3nc(=O)c(=O)[nH]n3C)CS[C@H]12)c1csc(N)n1 [CEFTRIAXONE]
CL free (Homo sapiens [43]): 0.933 mL/min/kg | CL (Rattus norvegicus [4]): 0.82 mL/min/kg | CL (Homo sapiens [44]): 0.07 mL/min/kg | CL free (Rattus norvegicus [5]): 12.73 mL/min/kg | dose excreted [6]: 62% | dose excreted [7]: 63% | CL (Canis familiaris [9]): 2.5 mL/min/kg | dose excreted [45]: 30% | CL free (Canis familiaris [12]): 2.907 mL/min/kg
